Test results: ChEMBL document CHEMBL1201862, “PubChem BioAssay data set” (2004)
Values joined by “and” are separate entries in the source; they are usually repeats but may differ in a detail not shown here. Identical values can stand only once.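 Dose response: 5 concentrations. Exposure: 48 h. Format: 96-well plates. Endpoint: linear interpolation; highest concentration if not reached. GI50 = concentration required for 50% inhibition of growth.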 Active and inactive are the calls of the source. No stated cut-off is given here; in the data, active = GI50 up to about 1.1 µM and inactive = higher.

Experiments:
Assay in all cases: DTP human tumour cell line panel, 48 h
SK-MEL-2 = system: SK-MEL-2
OVCAR-5 = system: OVCAR-5
BT-549 = system: BT-549
TK-10 = system: TK-10
DU-145 = system: DU-145
HCT-15 = system: HCT-15
SW-620 = system: SW-620
HT-29 = system: HT-29
NCI-H226 = system: NCI-H226
RXF 393 = system: RXF 393
IGROV-1 = system: IGROV-1
MDA-MB-435 = system: MDA-MB-435
Hs-578T = system: Hs-578T
OVCAR-4 = system: OVCAR-4
RPMI-8226 = system: RPMI-8226
KM12 = system: KM12
MDA-N = system: MDA-N
SF-539 = system: SF-539
T47D = system: T47D
U-251 = system: U-251
EKVX = system: EKVX
SK-MEL-28 = system: SK-MEL-28
PC-3 = system: PC-3
COLO 205 = system: COLO 205
SK-MEL-5 = system: SK-MEL-5
SF-268 = system: SF-268
OVCAR-3 = system: OVCAR-3
MDA-MB-231 = system: MDA-MB-231
UACC-257 = system: UACC-257
HOP-92 = system: HOP-92
NCI-H23 = system: NCI-H23
K562 = system: K562
A498 = system: A498
HCC 2998 = system: HCC 2998
Malme-3M = system: Malme-3M
786-0 = system: 786-0
NCI/ADR-RES = system: NCI/ADR-RES
A549 = system: A549
SN12C = system: SN12C
SR = system: SR
SNB-19 = system: SNB-19
HCT-116 = system: HCT-116
M14 = system: M14
SNB-75 = system: SNB-75
SK-OV-3 = system: SK-OV-3

Q: Which results are given for CCCCCCCCCCCCCCCCOP(=O)(O)OP(=O)(O)OCC1OC(n2ccc(N)nc2=O)C(O)C1O (stereo not given)?
A: GI50 (SK-MEL-2): > 100 µM (inactive); GI50 (OVCAR-5): > 100 µM (inactive) and > 61.9 µM (inactive); GI50 (BT-549): > 93.3 µM (inactive); GI50 (TK-10): > 100 µM (inactive); GI50 (DU-145): > 100 µM (inactive) and 58.2 µM (inactive); GI50 (HCT-15): > 100 µM and 98.2 µM; GI50 (SW-620): > 100 µM (inactive) and > 95.7 µM (inactive); GI50 (HT-29): 51.3 µM (inactive); GI50 (NCI-H226): 89.3 µM (inactive); GI50 (RXF 393): 58.2 µM (inactive); GI50 (IGROV-1): > 100 µM (inactive) and > 89.7 µM (inactive); GI50 (MDA-MB-435): > 100 µM (inactive); GI50 (Hs-578T): > 91.6 µM (inactive); GI50 (OVCAR-4): > 100 µM (inactive); GI50 (RPMI-8226): > 100 µM (inactive); GI50 (KM12): > 100 µM (inactive); GI50 (MDA-N): > 100 µM (inactive); GI50 (SF-539): > 91 µM (inactive); GI50 (T47D): > 74 µM (inactive); GI50 (U-251): > 100 µM (inactive) and > 76.7 µM (inactive); GI50 (EKVX): > 100 µM (inactive); GI50 (SK-MEL-28): > 100 µM (inactive); GI50 (PC-3): 54.6 µM (inactive); GI50 (COLO 205): > 100 µM (inactive); GI50 (SK-MEL-5): > 100 µM (inactive) and 53 µM (inactive); GI50 (SF-268): > 100 µM (inactive); GI50 (OVCAR-3): > 100 µM (inactive); GI50 (MDA-MB-231): > 76.2 µM (inactive); GI50 (UACC-257): > 100 µM (inactive) and > 96.6 µM (inactive); GI50 (HOP-92): > 100 µM (inactive) and 57.1 µM (inactive)

Q: For C=CCN1C(=O)/C(=C/c2ccc(OC)cc2)N=C1SC1OC(COC(C)=O)C(OC(C)=O)C(OC(C)=O)C1OC(C)=O (stereo not given), which GI50 (NCI-H23) is on record?
A: 33.5 µM (inactive) and 36.9 µM (inactive)

Q: What about the GI50 (K562) of the same molecule?
A: 36.7 µM (inactive) and 24.5 µM (inactive)

Q: And the GI50 (A498)?
A: 31.9 µM (inactive) and 32.4 µM (inactive)

Q: What about the GI50 (BT-549) of the same molecule?
A: 27.2 µM (inactive) and 19.8 µM (inactive)

Q: What about the GI50 (HCC 2998) of the same molecule?
A: 39.7 µM (inactive) and 64.3 µM (inactive)

Q: What about the GI50 (Malme-3M) of the same molecule?
A: 44.2 µM (inactive) and 57.5 µM (inactive)

Q: And the GI50 (786-0)?
A: 17.2 µM (inactive)

Q: And the GI50 (DU-145)?
A: 23.4 µM (inactive) and 45.3 µM (inactive)

Q: What about the GI50 (HCT-15) of the same molecule?
A: 36.4 µM and 43.7 µM

Q: What about the GI50 (SW-620) of the same molecule?
A: 60 µM (inactive) and 36.9 µM (inactive)

Q: And the GI50 (HT-29)?
A: 8.45 µM (inactive)

Q: What about the GI50 (NCI/ADR-RES) of the same molecule?
A: 30.8 µM (inactive) and 48.8 µM (inactive)

Q: What about the GI50 (NCI-H226) of the same molecule?
A: 21.6 µM (inactive) and 32.1 µM (inactive)

Q: And the GI50 (RXF 393)?
A: 27 µM (inactive) and 25.3 µM (inactive)

Q: And the GI50 (RPMI-8226)?
A: 32.8 µM (inactive) and 43.3 µM (inactive)

Q: And the GI50 (MDA-N)?
A: 37.8 µM (inactive)

Q: What about the GI50 (T47D) of the same molecule?
A: 23.8 µM (inactive)

Q: And the GI50 (A549)?
A: 34.8 µM (inactive)

Q: What about the GI50 (SN12C) of the same molecule?
A: 29.6 µM (inactive)

Q: And the GI50 (SR)?
A: 34.5 µM (inactive) and 25.9 µM (inactive)

Q: What about the GI50 (SNB-19) of the same molecule?
A: 32 µM (inactive)

Q: And the GI50 (EKVX)?
A: 28.2 µM (inactive) and 21.4 µM (inactive)

Q: What about the GI50 (HCT-116) of the same molecule?
A: 30.8 µM (inactive)

Q: What about the GI50 (COLO 205) of the same molecule?
A: 67.8 µM (inactive) and 41.3 µM (inactive)

Q: What about the GI50 (SK-MEL-5) of the same molecule?
A: 19.5 µM (inactive) and 29 µM (inactive)

Q: And the GI50 (M14)?
A: 39.4 µM (inactive)

Q: And the GI50 (SNB-75)?
A: 19.1 µM (inactive) and 35.5 µM (inactive)

Q: And the GI50 (UACC-257)?
A: 29.4 µM (inactive) and 20.7 µM (inactive)

Q: What about the GI50 (HOP-92) of the same molecule?
A: 12.7 µM (inactive) and 17.3 µM (inactive)

Q: And the GI50 (SK-OV-3)?
A: 18.1 µM (inactive) and 34.7 µM (inactive)
